Laboratory results as given in patent publication US11066414B2, “Cot modulators and methods of use thereof” (Gilead Sciences, Inc., priority 2015, dated 2021).
Read-outs that look alike come from different tables or passages of the source.

Assays:
TNFα = assay: Cot Monocyte TNFα Cell Based Assay
Human Cot = Human Cot (Homo sapiens (Human), UniProt P41279); assay: High Throughput Cot Biochemical Assay; conditions: Cot HTRF (TR-FRET) biochemical assay
[1] = Homo sapiens, Monocyte, read-out: EC50 TNF, LPS-stimulated human monocytes, TNFα
[2] = read-out: EC50 TNF, LPS-stimulated human monocytes, TNFα

Chain of Human Cot (P41279 30-397): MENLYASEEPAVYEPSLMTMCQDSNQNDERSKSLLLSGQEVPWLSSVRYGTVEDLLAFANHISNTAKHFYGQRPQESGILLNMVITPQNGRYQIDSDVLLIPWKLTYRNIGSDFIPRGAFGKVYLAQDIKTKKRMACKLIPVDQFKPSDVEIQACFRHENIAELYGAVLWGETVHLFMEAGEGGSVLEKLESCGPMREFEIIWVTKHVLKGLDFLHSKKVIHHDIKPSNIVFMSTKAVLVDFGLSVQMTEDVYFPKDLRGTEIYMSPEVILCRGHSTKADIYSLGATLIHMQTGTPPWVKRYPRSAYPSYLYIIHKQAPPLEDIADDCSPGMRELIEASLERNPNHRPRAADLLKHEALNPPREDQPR

| EC50 (TNFα; [1]) [nM] | IC50 (Human Cot; IC50 HTRF) [nM] | EC50 (TNFα; [2]) [nM] | IC50 (Human Cot; read-out: IC50 HTRF) [nM] | SMILES |
| --- | --- | --- | --- | --- |
| 760 | 50 |  |  | Cc1nc(F)ccc1[C@H](Nc1cc(Cl)c2ncc(C#N)c(N[C@H]3CCOCC3(C)C)c2c1)c1cn(C2(C(F)F)CC2)nn1 [Example 540, 8-chloro-6-(((S)-(1-(1-(difluoromethyl)-cyclopropyl)-1H-1,2,3-triazol-4-yl)(6-fluoro-2-methylpyridin-3-yl)methyl)-amino)-4-(((S)-3,3-dimethyltetrahydro-2H-pyran-4-yl)amino)quinoline-3-carbonitrile] |
| 180 | 6 |  |  | Cc1nc(F)ccc1[C@H](Nc1cc(Cl)c2ncc(C#N)c(NCC(C)(C)C)c2c1)c1cn(C(C)(C)C(F)(F)F)nn1 [Example 541, (S)-8-chloro-6-(((6-fluoro-2-methyl-pyridin-3-yl)(1-(1,1,1-trifluoro-2-methylpropan-2-yl)-1H-1,2,3-triazol-4-yl)methyl)amino)-4-(neopentylamino)-quinoline-3-carbonitrile] |
| 40 | 2 |  |  | Cn1nnc2cccc([C@H](Nc3cc(Cl)c4ncc(C#N)c(NCC(C)(C)C)c4c3)c3cn(C4(C(F)F)CC4)nn3)c21 [Example 542, (S)-8-chloro-6-(((1-(1-(difluoromethyl)-cyclopropyl)-1H-1,2,3-triazol-4-yl)(1-methyl-1H-benzo[d][1,2,3]triazol-7-yl)methyl)amino)-4-(neopentylamino)-quinoline-3-carbonitrile] |
| 210 | 8 |  |  | Cn1cc2c([C@H](Nc3cc(Cl)c4ncc(C#N)c(NCC(C)(C)C)c4c3)c3cn(C4(C(F)(F)F)CC4)nn3)cccc2n1 [Example 544, (S)-8-chloro-6-(((2-methyl-2H-indazol-4-yl)(1-(1-(trifluoromethyl)cyclopropyl)-1H-1,2,3-triazol-4-yl)methyl)amino)-4-(neopentylamino)quinoline-3-carbonitrile] |
| 108 | 4 |  |  | Cc1nc(F)ccc1[C@H](Nc1cc(Cl)c2ncc(C#N)c(NCC(C)(C)C)c2c1)c1cn(C(C)(C)C(F)F)nn1 [Example 545, (S)-8-chloro-6-(((1-(1,1-difluoro-2-methylpropan-2-yl)-1H-1,2,3-triazol-4-yl)(6-fluoro-2-methylpyridin-3-yl)methyl)-amino)-4-(neopentylamino)quinoline-3-carbonitrile] |
| 42 | 2 |  |  | Cc1nc(F)ccc1[C@H](Nc1cc(Cl)c2ncc(C#N)c(NCC(C)(C)C)c2c1)c1cn([C@@H](C)CF)nn1 [Example 546, 8-chloro-6-(((S)-(6-fluoro-2-methylpyridin-3-yl)(1-((S)-1-fluoropropan-2-yl)-1H-1,2,3-triazol-4-yl)methyl)amino)-4-(neopentylamino)quinoline-3-carbonitrile] |
|  |  | 33 | 2 | Cc1nc(F)ccc1[C@H](Nc1cc(Cl)c2ncc(C#N)c(NCC(C)(C)C)c2c1)c1cn(C2(C3CC3)CC2)nn1 [Example 547] |
| 124 | 8 |  |  | Cc1nc(F)ccc1[C@H](Nc1cc(Cl)c2ncc(C#N)c(NCC(C)(C)C)c2c1)c1cn(C2(C(F)(F)F)COC2)nn1 [Example 548, (S)-8-chloro-6-(((6-fluoro-2-methylpyridin-3-yl)(1-(3-(trifluoromethyl)oxetan-3-yl)-1H-1,2,3-triazol-4-yl)methyl)amino)-4-(neopentylamino)quinoline-3-carbonitrile] |
| 68 | 4 |  |  | [2H]c1c([C@@H](Nc2cc(Cl)c3ncc(C#N)c(NCC(C)(C)C)c3c2)c2ccc(F)nc2C)nnn1C1(C(F)(F)F)CC1 [Example 549, (S)-8-chloro-6-(((6-fluoro-2-methylpyridin-3-yl)(1-(1-(trifluoromethyl)cyclopropyl)-1H-1,2,3-triazol-4-yl-5-d)methyl)amino)-4-(neopentylamino)quinoline-3-carbonitrile] |
| 29 | 2 |  |  | CC(C)(C)CNc1c(C#N)cnc2c(C#N)cc(N[C@H](c3cn(C4(C(F)F)CC4)nn3)c3cccc4ncccc34)cc12 [Example 550, (S)-6-(((1-(1-(difluoromethyl)cyclopropyl)-1H-1,2,3-triazol-4-yl)(quinolin-5-yl)methyl)amino)-4-(neopentylamino)-quinoline-3,8-dicarbonitrile] |
| 26 | 2 |  |  | CC(C)(C)CNc1c(C#N)cnc2c(C#N)cc(N[C@H](c3cn(C4(C(F)F)CC4)nn3)c3cccc4ccncc34)cc12 [Example 552, (S)-6-(((1-(1-(difluoromethyl)cyclopropyl)-1H-1,2,3-triazol-4-yl)(isoquinolin-8-yl)methyl)-amino)-4-(neopentylamino)quinoline-3,8-dicarbonitrile] |
| 64 | 3 |  |  | Cc1nc(F)ccc1[C@H](Nc1cc(Cl)c2ncc(C#N)c(NCC(C)(C)C)c2c1)c1cn(C2(C(=O)N(C)C)CC2)nn1 [Example 553, (S)-1-(4-(((8-chloro-3-cyano-4-(neopentyl-amino)quinolin-6-yl)amino)(6-fluoro-2-methylpyridin-3-yl)methyl)-1H-1,2,3-triazol-1-yl)-N,N-dimethylcyclopropane-1-carboxamide] |
| 151 | 5 |  |  | Cc1nc(F)ccc1[C@H](Nc1cc(Cl)c2ncc(C#N)c(NCC(C)(C)C)c2c1)c1cn(C2(C(=O)N3CCCC3)CC2)nn1 [Example 554, (S)-8-chloro-6-(((6-fluoro-2-methylpyridin-3-yl)(1-(1-(pyrrolidine-1-carbonyl)cyclopropyl)-1H-1,2,3-triazol-4-yl)methyl)amino)-4-(neopentylamino)quinoline-3-carbonitrile] |
| 208 | 7 |  |  | Cc1nc(F)ccc1[C@H](Nc1cc(Cl)c2ncc(C#N)c(NCC(C)(C)C)c2c1)c1cn(C2(C(=O)N3CCOCC3)CC2)nn1 [Example 555, (S)-8-chloro-6-(((6-fluoro-2-methylpyridin-3-yl)(1-(1-(morpholine-4-carbonyl)cyclopropyl)-1H-1,2,3-triazol-4-yl)methyl)amino)-4-(neopentylamino)quinoline-3-carbonitrile] |
| 120 | 8 |  |  | Cc1n[nH]c2cccc([C@H](Nc3cc(Cl)c4ncc(C#N)c(NCC(C)(C)C)c4c3)c3cn(C4(C(F)F)CC4)nn3)c12 [Example 556, (S)-8-chloro-6-(((1-(1-(difluoromethyl)cyclo-propyl)-1H-1,2,3-triazol-4-yl)(3-methyl-1H-indazol-4-yl)methyl)amino)-4-(neopentyl-amino)quinoline-3-carbonitrile] |
| 117 | 5 |  |  | Cn1ncc2c([C@H](Nc3cc(C#N)c4ncc(C#N)c(NCC(C)(C)C)c4c3)c3cn(C4(C(F)(F)F)CC4)nn3)cccc21 [Example 557, (S)-6-(((1-methyl-1H-indazol-4-yl)(1-(1-(trifluoro-methyl)cyclopropyl)-1H-1,2,3-triazol-4-yl)methyl)amino)-4-(neopentylamino)-quinoline-3,8-dicarbonitrile] |
| 72 | 3 |  |  | Cn1cc2c([C@H](Nc3cc(C#N)c4ncc(C#N)c(NCC(C)(C)C)c4c3)c3cn(C4(C(F)(F)F)CC4)nn3)cccc2n1 [Example 558, (S)-6-(((2-methyl-2H-indazol-4-yl)(1-(1-(trifluoromethyl)cyclopropyl)-1H-1,2,3-triazol-4-yl)methyl)amino)-4-(neopentyl-amino)quinoline-3,8-dicarbonitrile] |
|  |  | 42 | 2 | Cn1nnc2cccc([C@H](Nc3cc(C#N)c4ncc(C#N)c(NCC(C)(C)C)c4c3)c3cn(C4(C(F)F)CC4)nn3)c21 [Example 559, (S)-6-(((4-(1-1-(difluoromethyl)cyclopropyl)-1H-1,2,3-triazol-4-yl)(1-methyl-1H-benzo[d] [1,2,3]triazol-7-yl)methyl)amino)-4-(neopentylamino)quinoline-3,8-dicarbonitrile] |
| 287 | 11 |  |  | CC(C)(C)CNc1c(C#N)cnc2c(Cl)cc(N[C@H](c3cn(C4(C(F)(F)F)CC4)nn3)c3cccn4nccc34)cc12 [Example 560, (S)-8-chloro-4-(neopentylamino)-6-((pyrazolo[1,5-a]pyridin-4-yl(1-(1-(trifluoromethyl)cyclopropyl)-1H-1,2,3-triazol-4-yl)methyl)amino)quinoline-3-carbonitrile] |
| 433 | 2 |  |  | CC(C)(C)CNc1c(C#N)cnc2c(Cl)cc(N[C@H](c3cn(C4(C(N)=O)CC4)nn3)c3cccc4cnccc34)cc12 [Example 561, (S)-1-(4-(((8-chloro-3-cyano-4-(neopentylamino)quinolin-6-yl)amino) (isoquinolin-5-yl)methyl)-1H-1,2,3-triazol-1-yl)cyclopropane-1-carboxamide] |
| 231 | 2 |  |  | CC(C)(C)CNc1c(C#N)cnc2c(Cl)cc(N[C@H](c3cn(C4(C(N)=O)CCC4)nn3)c3cccc4cnccc34)cc12 [Example 562, (S)-1-(4-(((8-chloro-3-cyano-4-(neopentyl-amino)quinolin-6-yl)amino)(isoquinolin-5-yl)methyl)-1H-1,2,3-triazol-1-yl)cyclobutane-1-carboxamide] |
| 63 | 2 |  |  | CC(C)(C)CNc1c(C#N)cnc2c(Cl)cc(N[C@H](c3cn(C4(C#N)CC4)nn3)c3cccc4cnccc34)cc12 [Example 563, (S)-8-chloro-6-(((1-(1-cyanocyclopropyl)-1H-1,2,3-triazol-4-yl)(isoquinolin-5-yl)methyl)amino)-4-(neopentylamino)-quinoline-3-carbonitrile] |
| 69 | 3 |  |  | CC(C)(C)CNc1c(C#N)cnc2c(Cl)cc(N[C@H](c3cn(C4(C)CC4)nn3)c3cccc4cnccc34)cc12 [Example 564, (S)-8-chloro-6-((isoquinolin-5-yl(1-(1-methylcyclopropyl)-1H-1,2,3-triazol-4-yl)methyl)amino)-4-(neopentylamino)-quinoline-3-carbonitrile] |
